The target of assay [1] is T1, TYK2 kinase (Homo sapiens, UniProt P29597).
T1 construct: purchased Life Technologies PR8440C
The assay is described as follows: Inhibition assay of TYK2 kinase activity (ADP-Glo Kinase Assay). In kind it is biochemical. The protocol:
Determination of inhibition of TYK2 kinase activity by the examples compounds disclosed herein
Inhibition assay of TYK2 kinase activity: the method of ADP-Glo™ Kinase Assay (Promega, V9102) was used to determine the inhibitory activity of the test compounds against TYK2 kinase.
TYK2 kinase (purchased from Life Technologies, article number: PR8440C) was diluted to the 2-fold final concentration (0.8 ng/mL) using reaction buffer (40 mM Tris-HCl, pH 7.5; 20 mM MgCl2; 0.1 mg/mL BSA; 1 mM DTT), and added to a 384-well plate at 5 μL/well. The test drugs were subjected to a 10-fold gradient dilution, from 10 μM, to obtain 6 concentrations, and added to experimental wells of the 384-well plate at 2.5 μL/well. 5 μL of water and 2.5 μL of buffer were added to negative control wells. 5 μL of TYK2 and 2.5 μL of water were added to positive control wells. After incubating for 10 minutes at room temperature, the substrate ATP and polyE4Y1 (Sigma, P0275) were added at 2.5 μL/well, mixed well, and then reacted at room temperature for 60 minutes. After the reaction was completed, the kinase activity was detected according to the instruction of the kit. First, the ADP-Glo reaction reagent was added at 10 μL/well, mixed well, and reacted at room temperature for 40 minutes. The kinase detection reagent was then added at 20 μL/well, mixed well, and then reacted at room temperature for 30 minutes. The detection was then performed and the IC50s of test drugs were calculated.
A general note: ADP-Glo turns the ADP formed in a reaction into a luminescent signal.

The target of assay [2] is JAK1 kinase (Homo sapiens, UniProt P23458). The experiment in a line: Inhibition assay of JAK1 kinase activity (ADP-Glo Kinase Assay). In kind it is biochemical. The source says: Inhibition assay of JAK1 kinase activity: the method in ADP-Glo™ Kinase Assay (Promega, V9102) was used to determine the inhibitory activity of the test compounds against JAK1 kinase.

Structures are written as SMILES.

What is called IC50 is the midpoint of a concentration-inhibition curve. Higher therefore signals lower potency.

T1 sequence (P29597 whole entry): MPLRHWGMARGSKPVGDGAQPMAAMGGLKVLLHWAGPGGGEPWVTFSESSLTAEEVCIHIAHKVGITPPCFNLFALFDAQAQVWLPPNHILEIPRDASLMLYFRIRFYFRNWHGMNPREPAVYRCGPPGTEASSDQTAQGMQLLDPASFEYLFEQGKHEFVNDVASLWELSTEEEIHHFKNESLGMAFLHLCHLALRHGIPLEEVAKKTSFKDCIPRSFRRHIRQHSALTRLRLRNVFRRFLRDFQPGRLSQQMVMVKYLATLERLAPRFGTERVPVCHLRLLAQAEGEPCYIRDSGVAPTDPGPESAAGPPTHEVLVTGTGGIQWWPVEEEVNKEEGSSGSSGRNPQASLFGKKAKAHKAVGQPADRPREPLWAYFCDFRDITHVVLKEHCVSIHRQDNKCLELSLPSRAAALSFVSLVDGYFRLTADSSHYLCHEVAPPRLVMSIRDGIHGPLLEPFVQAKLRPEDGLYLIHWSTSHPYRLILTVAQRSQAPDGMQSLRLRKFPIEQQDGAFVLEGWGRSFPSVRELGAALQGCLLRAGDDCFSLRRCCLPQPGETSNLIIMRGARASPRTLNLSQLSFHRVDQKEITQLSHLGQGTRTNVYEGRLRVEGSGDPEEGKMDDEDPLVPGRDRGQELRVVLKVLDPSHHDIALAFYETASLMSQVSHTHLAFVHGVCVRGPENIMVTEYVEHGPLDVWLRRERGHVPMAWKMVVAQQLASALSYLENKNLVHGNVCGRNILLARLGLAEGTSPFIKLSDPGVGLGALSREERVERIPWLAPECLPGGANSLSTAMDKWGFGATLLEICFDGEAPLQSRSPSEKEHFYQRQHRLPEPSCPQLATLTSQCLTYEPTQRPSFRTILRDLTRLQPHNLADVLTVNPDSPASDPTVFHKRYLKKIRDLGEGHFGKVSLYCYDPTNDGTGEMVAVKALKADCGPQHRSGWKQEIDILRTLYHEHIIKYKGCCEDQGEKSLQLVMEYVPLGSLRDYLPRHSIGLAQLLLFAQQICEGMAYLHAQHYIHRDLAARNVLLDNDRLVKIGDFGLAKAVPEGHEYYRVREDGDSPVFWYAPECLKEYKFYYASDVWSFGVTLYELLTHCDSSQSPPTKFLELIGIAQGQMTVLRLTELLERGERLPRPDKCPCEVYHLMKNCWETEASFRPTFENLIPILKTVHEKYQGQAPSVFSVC
JAK1 kinase, sequence (P23458 whole entry): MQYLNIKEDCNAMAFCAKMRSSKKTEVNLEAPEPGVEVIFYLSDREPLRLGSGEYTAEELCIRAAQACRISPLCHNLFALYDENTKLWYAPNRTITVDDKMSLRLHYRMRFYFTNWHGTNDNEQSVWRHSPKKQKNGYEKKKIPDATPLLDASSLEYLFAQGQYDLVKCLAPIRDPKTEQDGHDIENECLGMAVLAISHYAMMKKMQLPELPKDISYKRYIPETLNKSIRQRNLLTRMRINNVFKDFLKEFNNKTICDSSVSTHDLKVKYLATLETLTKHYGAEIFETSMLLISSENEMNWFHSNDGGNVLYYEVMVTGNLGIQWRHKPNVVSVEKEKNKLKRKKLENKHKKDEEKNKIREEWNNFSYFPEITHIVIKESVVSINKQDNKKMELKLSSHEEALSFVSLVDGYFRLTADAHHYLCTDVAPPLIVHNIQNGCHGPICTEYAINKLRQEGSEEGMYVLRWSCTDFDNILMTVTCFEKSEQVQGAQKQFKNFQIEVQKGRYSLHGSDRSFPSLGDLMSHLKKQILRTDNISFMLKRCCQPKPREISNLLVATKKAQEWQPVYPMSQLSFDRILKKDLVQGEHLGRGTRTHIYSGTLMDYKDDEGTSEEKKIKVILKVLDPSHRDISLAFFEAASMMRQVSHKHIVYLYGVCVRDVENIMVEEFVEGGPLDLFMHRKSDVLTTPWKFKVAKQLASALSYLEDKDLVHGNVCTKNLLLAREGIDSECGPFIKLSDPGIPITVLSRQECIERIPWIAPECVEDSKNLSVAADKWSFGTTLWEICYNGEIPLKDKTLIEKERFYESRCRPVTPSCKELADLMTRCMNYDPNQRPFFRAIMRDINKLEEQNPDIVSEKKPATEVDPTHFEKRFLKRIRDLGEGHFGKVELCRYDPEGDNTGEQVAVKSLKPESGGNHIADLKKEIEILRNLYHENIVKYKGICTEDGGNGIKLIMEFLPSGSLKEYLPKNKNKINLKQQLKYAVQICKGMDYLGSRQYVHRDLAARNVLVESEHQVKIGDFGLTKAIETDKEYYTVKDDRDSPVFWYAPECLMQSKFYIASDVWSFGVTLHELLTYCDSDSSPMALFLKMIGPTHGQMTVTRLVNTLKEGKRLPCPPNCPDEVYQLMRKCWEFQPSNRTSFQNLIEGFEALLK

Turning to `NC(=O)c1cnc(Nc2ccc3c(c2)NCC(O)CO3)nc1NC1CCCC1` (centres unmarked) [Example 3, 4-(cyclopentylamino)-2-((3-hydroxy-2,3,4,5-tetrahydro-benzo[b][1,4]oxazepin-7-yl)amino)pyrimidin-5-carboxamide], the IC50 in assay [1] and in assay [2] was under 0.01 µM each time.

Consider `NC(=O)c1cnc(Nc2ccc3c(c2)NCC(O)CO3)nc1NC1CCCCC1` (centres unmarked) [Example 4, 4-(cyclohexylamino)-2-((3-hydroxy-2,3,4,5-tetrahydro-benzo[b][1,4]oxazepin-7-yl)amino)pyrimidin-5-carboxamide], for which the values for the IC50 in assay [1] and in assay [2] were under 0.01 µM and 0.01 to 0.1 µM, respectively.

In the case of `NC(=O)c1cnc(Nc2ccc3c(c2)NCC(O)CO3)nc1NC12CC3CC(CC(C3)C1)C2` (centres unmarked) [Example 5, 4-((adamantanyl-1-yl)amino)-2-((3-hydroxy-2,3,4,5-tetrahydro-benzo[b][1,4]oxazepin-7-yl)amino)pyrimidin-5-carboxamide], the IC50 in assay [1] and in assay [2] was 0.01 to 0.1 µM in each case.

`NC(=O)c1cnc(Nc2ccc3c(c2)NCC(O)CO3)nc1NC1CCOCC1` (centres unmarked) [Example 6, 4-((tetrahydropyran-4-yl)amino)-2-((3-hydroxy-2,3,4,5-tetrahydro-benzo[b][1,4]oxazepin-7-yl)amino)pyrimidin-5-carboxamide]: the IC50 in assay [1] is under 0.01 µM; in assay [2] it was 0.01 to 0.1 µM.

Turning to `N#CCNc1nc(Nc2ccc3c(c2)NCC(O)CO3)ncc1C(N)=O` (centres unmarked) [Example 8, 4-(cyanomethylamino)-2-((3-hydroxy-2,3,4,5-tetrahydro-benzo[b][1,4]oxazepin-7-yl)amino)pyrimidin-5-carboxamide], the IC50 is under 0.01 µM in assay [1] and 0.01 to 0.1 µM in assay [2].

`NC(=O)c1cnc(Nc2ccc3c(c2)NCC(O)CO3)nc1NCc1ccc(F)cc1` (centres unmarked) [Example 10, 4-((4-fluorobenzyl)amino)-2-((3-hydroxy-2,3,4,5-tetrahydro-benzo[b][1,4]oxazepin-7-yl)amino)pyrimidin-5-carboxamide] came in with an IC50 in assay [1] of 0.01 to 0.1 µM.

As for `COc1ccc(CNc2nc(Nc3ccc4c(c3)NCC(O)CO4)ncc2C(N)=O)cc1` (centres unmarked) [Example 11, 4-((4-methoxybenzyl)amino)-2-((3-hydroxy-2,3,4,5-tetrahydro-benzo[b][1,4]oxazepin-7-yl)amino)pyrimidin-5-carboxamide], in assay [1], the IC50 lay within 0.01 to 0.1 µM.

With `CC(Nc1nc(Nc2ccc3c(c2)NCC(O)CO3)ncc1C(N)=O)c1ccccc1` (centres unmarked) [Example 12, 4-((1-phenylethyl)amino)-2-((3-hydroxy-2,3,4,5-tetrahydro-benzo[b][1,4]oxazepin-7-yl)amino)pyrimidin-5-carboxamide], in assay [1], the IC50 is 0.01 to 0.1 µM.

Regarding `NC(=O)c1cnc(Nc2ccc3c(c2)NCC(O)CO3)nc1NCc1ccccn1` (centres unmarked) [Example 13, 4-((pyridin-2-ylmethyl)amino)-2-((3-hydroxy-2,3,4,5-tetrahydro-benzo[b][1,4]oxazepin-7-yl)amino)pyrimidin-5-carboxamide], the IC50 in assay [1] was under 0.01 µM.

With `NC(=O)c1cnc(Nc2ccc3c(c2)NCC(O)CO3)nc1NCc1cccnc1` (centres unmarked) [Example 14, 4-((pyridin-3-ylmethyl)amino)-2-((3-hydroxy-2,3,4,5-tetrahydro-benzo[b][1,4]oxazepin-7-yl)amino)pyrimidin-5-carboxamide], the IC50 is under 0.01 µM in assay [1] and 0.01 to 0.1 µM in assay [2].

Turning to `NC(=O)c1cnc(Nc2ccc3c(c2)NCC(O)CO3)nc1NCc1ccncc1` (centres unmarked) [Example 15, 4-((pyridin-4-ylmethyl)amino)-2-((3-hydroxy-2,3,4,5-tetrahydro-benzo[b][1,4]oxazepin-7-yl)amino)pyrimidin-5-carboxamide], the IC50 in assay [1] was 0.01 to 0.1 µM.

With `NC(=O)c1cnc(Nc2ccc3c(c2)NCC(O)CO3)nc1Nc1ccccc1` (centres unmarked) [Example 16, 4-(phenylamino)-2-((3-hydroxy-2,3,4,5-tetrahydro-benzo[b][1,4]oxazepin-7-yl)amino)pyrimidin-5-carboxamide], the IC50 in assay [1] was in the range of 0.01 to 0.1 µM.

On to `Cc1cccc(Nc2nc(Nc3ccc4c(c3)NCC(O)CO4)ncc2C(N)=O)c1` (centres unmarked) [Example 17, 4-((3-methylphenyl)amino)-2-((3-hydroxy-2,3,4,5-tetrahydro-benzo[b][1,4]oxazepin-7-yl)amino)pyrimidin-5-carboxamide], for which the values for the IC50 in assay [1] and in assay [2] were under 0.01 µM and 0.01 to 0.1 µM, respectively.

In turn, `NC(=O)c1cnc(Nc2ccc3c(c2)NCC(O)CO3)nc1Nc1cccc(F)c1` (centres unmarked) [Example 18, 4-((3-fluorophenyl)amino)-2-((3-hydroxy-2,3,4,5-tetrahydro-benzo[b][1,4]oxazepin-7-yl)amino)pyrimidin-5-carboxamide] showed an IC50 in assay [1] of 0.01 to 0.1 µM.

In turn, `Cc1ccc(Nc2nc(Nc3ccc4c(c3)NCC(O)CO4)ncc2C(N)=O)nc1` (centres unmarked) [Example 19, 4-((5-methylpyridin-2-yl)amino)-2-((3-hydroxy-2,3,4,5-tetrahydro-benzo[b][1,4]oxazepin-7-yl)amino)pyrimidin-5-carboxamide] had an IC50 in assay [1] of 0.01 to 0.1 µM.

With `Cn1ccc2c(Nc3nc(Nc4ccc5c(c4)NCC(O)CO5)ncc3C(N)=O)cccc21` (centres unmarked) [Example 20, 4-((1-methyl-1H-indol-4-yl)amino)-2-((3-hydroxy-2,3,4,5-tetrahydro-benzo[b][1,4]oxazepin-7-yl)amino)pyrimidin-5-carboxamide], the figures for the IC50 in assay [1] and in assay [2] were under 0.01 µM and 0.01 to 0.1 µM, respectively.

In turn, `NC(=O)c1cnc(Nc2ccc3c(c2)NCC(O)CO3)nc1Nc1cccc2sccc12` (centres unmarked) [Example 21, 4-(benzo[b]thiophen-4-ylamino)-2-((3-hydroxy-2,3,4,5-tetrahydro-benzo[b][1,4]oxazepin-7-yl)amino)pyrimidin-5-carboxamide] came in with an IC50 in assay [1] of under 0.01 µM.

In assay [1], `NC(=O)c1cnc(Nc2ccc3c(c2)NCC(O)CO3)nc1NC1CCCc2ccccc21` (centres unmarked) [Example 22, 4-((1,2,3,4-tetrahydronaphthalen-1-yl)amino)-2-((3-hydroxy-2,3,4,5-tetrahydro-benzo[b][1,4]oxazepin-7-yl)amino)pyrimidin-5-carboxamide] yielded an IC50 of 0.01 to 0.1 µM.

In turn, `CC(O)CNc1nc(Nc2ccc3c(c2)NCC(O)CO3)ncc1C(N)=O` (centres unmarked) [Example 23, 4-((2-hydroxypropyl)amino)-2-((3-hydroxy-2,3,4,5-tetrahydro-benzo[b][1,4]oxazepin-7-yl)amino)pyrimidin-5-carboxamide] yielded an IC50 in assay [1] of under 0.01 µM.

`CC(C)(CO)Nc1nc(Nc2ccc3c(c2)NC[C@H](O)CO3)ncc1C(N)=O` [Example 28, 4-((1-hydroxy-2-methylpropan-2-yl)amino)-2-(((S)-2,3,4,5-tetrahydro-3-hydroxybenzo[b][1,4]oxazepin-7-yl)amino)pyrimidin-5-carboxamide] registered a 50% inhibitory concentration (IC50) in assay [1] of under 0.01 µM.

On to `NC(=O)c1cnc(Nc2ccc3c(c2)NC[C@H](O)CO3)nc1Nc1cccc2[nH]ccc12` [Example 29, 4-((1H-indol-4-yl)amino)-2-(((S)-2,3,4,5-tetrahydro-3-hydroxybenzo[b][1,4]oxazepin-7-yl)amino)pyrimidin-5-carboxamide], for which the IC50 in assay [1] and in assay [2] was under 0.01 µM each time.

On to `CC(C)Nc1nc(Nc2ccc3c(c2)NC[C@H](O)CO3)ncc1C(N)=O` [Example 30, 4-(isopropylamino)-2-(((S)-2,3,4,5-tetrahydro-3-hydroxybenzo[b][1,4]oxazepin-7-yl)amino)pyrimidin-5-carboxamide], for which the IC50 in assay [1] is under 0.01 µM; in assay [2] it was 0.01 to 0.1 µM.

On to `CC(Nc1nc(Nc2ccc3c(c2)NC[C@H](O)CO3)ncc1C(N)=O)C(F)(F)F` (stereo partly drawn) [Example 32, 4-(1,1,1-trifluoropropan-2-ylamino)-2-(((S)-2,3,4,5-tetrahydro-3-hydroxybenzo[b][1,4]oxazepin-7-yl)amino)pyrimidin-5-carboxamide], for which the IC50 in assay [1] and in assay [2] was 0.01 to 0.1 µM in each case.

In assay [1], `CCS(=O)(=O)NCCNc1nc(Nc2ccc3c(c2)NC[C@H](O)CO3)ncc1C(N)=O` [Example 71, 4-((2-(ethylsulfonamido)ethyl)amino)-2-(((S)-2,3,4,5-tetrahydro-3-hydroxybenzo[b][1,4]oxazepin-7-yl)amino)pyrimidin-5-carboxamide] gave an IC50 of under 0.01 µM.

On to `CCO[C@@H]1CNc2cc(Nc3ncc(C(N)=O)c(NC4CC4)n3)ccc2OC1` [Example 83, 4-(cyclopropylamino)-2-(((R)-2,3,4,5-tetrahydro-3-ethoxybenzo[b][1,4]oxazepin-7-yl)amino)pyrimidin-5-carboxamide], for which the IC50 in assay [1] was under 0.01 µM.

In turn, `CCCCO[C@@H]1CNc2cc(Nc3ncc(C(N)=O)c(NC4CC4)n3)ccc2OC1` [Example 85, 4-(cyclopropylamino)-2-(((R)-2,3,4,5-tetrahydro-3-butoxybenzo[b][1,4]oxazepin-7-yl)amino)pyrimidin-5-carboxamide] came in with an IC50 in assay [1] of under 0.01 µM.

`CCCCCO[C@H]1CNc2cc(Nc3ncc(C(N)=O)c(NC4CC4)n3)ccc2OC1` [Example 88, 4-(cyclopropylamino)-2-(((S)-2,3,4,5-tetrahydro-3-pentoxybenzo[b][1,4]oxazepin-7-yl)amino)pyrimidin-5-carboxamide] yielded an IC50 in assay [1] of 0.01 to 0.1 µM.

These data come from patent publication US20200172529A1, “Chemical Compound, Pharmaceutical Composition Thereof, and Use and Application Thereof” (Beijing Hanmi Pharm. Co., Ltd., priority 2017, published 2020).
